Data: patent publication US9273014B2, “Bis(fluoroalkyl)-1,4-benzodiazepinone compounds and prodrugs thereof” (Bristol-Myers Squibb Company, priority 2012, dated 2016)
Entries after “also recorded” stand apart in the source; their conditions may differ.

Experiments:
human Notch 3 = human Notch 3 (Homo sapiens, UniProt Q9UM47); assay: Notch-CBF1 Transactivation Assay (Notch 3); type: cell-based; details: HeLa cells co-transfected with truncated Notch 3 and CBF1 luciferase reporter; 18 hours incubation
Sequence of human Notch 3 (Q9UM47 40-2321 limits assumed): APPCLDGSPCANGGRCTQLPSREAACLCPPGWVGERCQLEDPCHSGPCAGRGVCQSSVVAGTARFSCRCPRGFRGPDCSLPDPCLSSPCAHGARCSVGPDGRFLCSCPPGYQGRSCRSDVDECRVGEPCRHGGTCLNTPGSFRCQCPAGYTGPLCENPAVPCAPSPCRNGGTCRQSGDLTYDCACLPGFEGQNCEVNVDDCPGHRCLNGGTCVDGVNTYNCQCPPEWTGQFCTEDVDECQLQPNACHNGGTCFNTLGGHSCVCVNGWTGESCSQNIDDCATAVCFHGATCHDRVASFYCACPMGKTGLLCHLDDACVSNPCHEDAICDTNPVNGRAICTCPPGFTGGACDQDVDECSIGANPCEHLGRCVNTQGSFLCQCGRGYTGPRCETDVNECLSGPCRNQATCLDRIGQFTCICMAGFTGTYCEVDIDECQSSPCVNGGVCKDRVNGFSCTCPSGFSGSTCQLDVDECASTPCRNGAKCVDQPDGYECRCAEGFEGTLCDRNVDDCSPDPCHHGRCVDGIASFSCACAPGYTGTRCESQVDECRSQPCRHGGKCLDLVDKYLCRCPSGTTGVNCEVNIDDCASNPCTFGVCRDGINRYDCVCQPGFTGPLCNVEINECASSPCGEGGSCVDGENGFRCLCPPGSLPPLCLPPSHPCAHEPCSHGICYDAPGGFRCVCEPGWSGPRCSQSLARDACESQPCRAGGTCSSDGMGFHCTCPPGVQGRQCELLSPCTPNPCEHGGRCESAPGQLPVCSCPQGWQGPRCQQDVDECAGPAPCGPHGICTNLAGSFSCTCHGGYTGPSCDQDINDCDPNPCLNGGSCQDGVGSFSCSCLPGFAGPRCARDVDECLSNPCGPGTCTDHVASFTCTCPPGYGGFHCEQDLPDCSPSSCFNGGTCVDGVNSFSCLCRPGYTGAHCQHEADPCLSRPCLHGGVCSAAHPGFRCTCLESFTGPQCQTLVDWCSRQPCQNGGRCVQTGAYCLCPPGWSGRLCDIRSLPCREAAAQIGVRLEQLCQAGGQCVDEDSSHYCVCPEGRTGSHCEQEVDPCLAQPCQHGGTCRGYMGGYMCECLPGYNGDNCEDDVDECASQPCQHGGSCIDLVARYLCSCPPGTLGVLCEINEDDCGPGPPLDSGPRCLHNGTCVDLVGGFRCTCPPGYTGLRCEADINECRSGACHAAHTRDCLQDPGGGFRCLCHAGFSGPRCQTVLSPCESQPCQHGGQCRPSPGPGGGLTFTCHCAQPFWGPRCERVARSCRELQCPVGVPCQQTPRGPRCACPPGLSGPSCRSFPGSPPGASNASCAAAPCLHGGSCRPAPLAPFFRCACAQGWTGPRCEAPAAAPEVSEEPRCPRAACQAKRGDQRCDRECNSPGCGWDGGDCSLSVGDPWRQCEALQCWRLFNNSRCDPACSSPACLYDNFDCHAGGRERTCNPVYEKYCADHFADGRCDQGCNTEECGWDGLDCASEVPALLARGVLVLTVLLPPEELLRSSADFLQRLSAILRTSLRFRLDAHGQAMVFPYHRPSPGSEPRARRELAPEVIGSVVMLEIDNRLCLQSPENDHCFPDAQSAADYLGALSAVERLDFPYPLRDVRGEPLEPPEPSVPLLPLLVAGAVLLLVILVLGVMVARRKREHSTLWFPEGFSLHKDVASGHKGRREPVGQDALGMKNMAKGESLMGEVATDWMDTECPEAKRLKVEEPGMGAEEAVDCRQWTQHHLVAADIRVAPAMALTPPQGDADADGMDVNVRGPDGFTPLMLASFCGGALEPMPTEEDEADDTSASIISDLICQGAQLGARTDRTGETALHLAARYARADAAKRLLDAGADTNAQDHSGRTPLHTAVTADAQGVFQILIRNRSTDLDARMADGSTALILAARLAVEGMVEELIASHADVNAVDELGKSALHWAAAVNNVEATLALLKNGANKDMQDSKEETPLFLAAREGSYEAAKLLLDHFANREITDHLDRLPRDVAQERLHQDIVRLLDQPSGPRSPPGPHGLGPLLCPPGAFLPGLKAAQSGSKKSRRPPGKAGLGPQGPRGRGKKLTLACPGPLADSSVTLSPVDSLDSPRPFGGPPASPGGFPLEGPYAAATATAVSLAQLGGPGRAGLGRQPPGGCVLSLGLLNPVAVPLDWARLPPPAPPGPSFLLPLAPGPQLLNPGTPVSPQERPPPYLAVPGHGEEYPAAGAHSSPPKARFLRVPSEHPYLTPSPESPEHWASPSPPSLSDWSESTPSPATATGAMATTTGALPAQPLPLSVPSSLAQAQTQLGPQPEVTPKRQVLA
Description: Notch-CBF1 Transactivation Assay
The Notch-CBF1 (C-promoter binding factor I) cell based transactivation assay is based on the ability of the released Notch intracellular domain fragments (NICDs) to function as transcription factors in conjunction with CBF1 and other nuclear factors. Luciferase assays were used to measure the antagonism of Notch-CBF1 transcriptional activity. HeLa cervical cancer cells are transiently co-transfected with pCDNA3.1/Hygro plasmids containing truncated Notch 1, Notch 2, Notch 3, or Notch 4 receptors and a PGL3 luciferase reporter vector containing 4 copies of CBF1 binding site. The cells were then tested for Notch-CBF1 activity in the absence or presence of test compounds. HeLa cells, maintained in DMEM (high glucose with HEPES), 1× glutamine/penicillin/streptomycin and 10% Fetal Bovine serum, were transiently transfected in a T175 Flask (4.5×10^6 cells/flask) using the Monster Transfection Kit (Minis #MIR2906) according to manufacturers specifications. Table 9 denotes respective DNA quantity for the transfections.
Assay media (5 μL) containing test compounds in final concentrations ranging from 5 μM to 8.4×10^−5 μM (3 fold serial dilutions) were added to the cells and the cell plates were then incubated for 18 hours at 37° C. and 5% CO2. Control wells contained DMSO vehicle (total counts) or 0.5 μM of an in-house small molecule inhibitor (background counts). Duplicates were used for each sample. Luciferase activity was measured after a 20-minute incubation with 50 μl STEADY-GLO® luciferase reagents according to manufacturer's specifications (Promega, Cat. #E2550) and analyzed by Envision plate reader (PerkinElmer, Boston, Mass.).
The antagonist effect of compounds was expressed as 100×[1−(average sample-average background)/(average total−average background)] where sample is the luciferase activity in the presence of test compound, background is equal to the luciferase activity in the presence of the small molecule inhibitor control and the total is signal induced in DMSO wells.

[1] = test system: TALL1 Human T-cell acute lymphoblastic leukemia; assay: Human tumor xenograft model in mice, TALL1; type: in vivo; details: oral administration, QDx10, LCK = Log Cell Kill
Protocol: (§1) Human Tumor Xenograft Models in Mice
(§2) Mice were fed food and water ad libitum.
(§3) Tumor growth inhibition is calculated as follows: […]
(§4) When death occurred, the day of death was recorded.

[2] = test system: MDA-MB-157 Human Breast Carcinoma; assay: Human tumor xenograft model in mice, MDA-MB-157; type: in vivo; details: oral administration, 10-20 mg/kg, QDx15, 10 day-on-2 day-off-5 day on
Protocol: as §1, §2, §3, §4

[3] = test system: MDA-MB-468 Human Breast Carcinoma; details: oral administration, 10-20 mg/kg, QDx15, 10 day-on-2 day-off-5 day on
Protocol: Treatment of each animal was based on individual body weight. Treated animals were checked daily for treatment related toxicity/mortality. Each group of animals was weighed before the initiation of treatment (Wt1) and then again following the last treatment dose (Wt2). The difference in body weight (Wt2−Wt1) provides a measure of treatment-related toxicity.
Statistical evaluations of data were performed using Gehan's generalized Wilcoxon test. Statistical significance was declared at P<0.05.

human tumor xenografts = assay: Human tumor xenograft models in mice (general statement); type: in vivo; details: orally administered (PO)
Protocol: Mice were fed food and water ad libitum. […] [table] […] When death occurred, the day of death was recorded.

in vitro = details: human, microsomes, pH 7.4
[4] = human metabolic stability half-life assay; details: microsomes, pH 7.4
[5] = Prodrug evaluation: single-dose pharmacokinetics in rats; details: rat, oral gavage, dose 3.00 mg/kg
Protocol: Male SPRAGUE DAWLEY® rats (250-300 g) were used for the pharmacokinetic studies. Rats were fasted overnight prior to dosing and fed 4 hrs post dose. In each study, groups of animals (N=2-3) received the test compound by oral gavage. Blood samples (˜0.3 mL) were collected from the jugular vein into K2EDTA-containing tubes at 0.5, 1, 3, 5, 7, and 24 h post dose. Plasma samples, obtained by centrifugation at 4° C. (1500-2000× g), were stored at −20° C. until analysis by LC/MS/MS.
The pharmacokinetic parameters were obtained by non-compartmental analysis of plasma concentration (determined by LC/MS/MS) vs. time data (ThermoKinetica Software version 5.0). The peak concentration (Cmax) and time for Cmax, Tmax, were recorded directly from experimental observations. The area under the curve from time zero to the last sampling time (AUC0-t) was calculated using a combination of linear and log trapezoidal summations. The total plasma clearance (CLTp), steady-state volume of distribution (Vss), apparent elimination half-life (t1/2) and mean residence time (MRT) were estimated after IV administration. […] The absolute oral bioavailability F was estimated as the ratio of dose-normalized AUC values following oral and IV doses.

SMILES	IC50 (human Notch 3)	half-life (in vitro)	also measured
Cc1cccc2c1NC(=O)[C@@H](NC(=O)[C@H](CCC(F)(F)F)[C@H](CCC(F)(F)F)C(N)=O)N=C2c1cccc(F)c1 [Example 1, (2R,3S)—N-((3S)-5-(3-Fluorophenyl)-9-methyl-2-oxo-2,3-dihydro-1H-1,4-benzodiazepin-3-yl)-2,3-bis(3,3,3-trifluoropropyl)succinamide]	8.5 nM	–	Antitumor Activity TALL1 (LCK) ([1]; 10-20 mg/kg): >4.3; Antitumor Activity MDA-MB-157 (% TGI) [2]: 91%; Antitumor Activity MDA-MB-468 (% TGI) [3]: 98%; antitumor activity in human tumor xenografts implanted in mice (human tumor xenografts): exhibited antitumor activity; also recorded: showed antitumor activity; half-life at 0.5 µM (in vitro): 1.72 h
CC(C)c1cccc2c1NC(=O)[C@@H](NC(=O)[C@H](CCC(F)(F)F)[C@H](CCC(F)(F)F)C(N)=O)N=C2c1cccc(Cl)c1 [Example 3, (2R,3S)—N-((3S)-5-(3-Chlorophenyl)-9-isopropyl-2-oxo-2,3-dihydro-1H-1,4-benzodiazepin-3-yl)-2,3-bis(3,3,3-trifluoropropyl)succinamide]	1.9 nM	1.22 h	Antitumor Activity TALL1 (LCK) ([1]; 10 mg/kg): 4.0; antitumor activity in human tumor xenografts implanted in mice (human tumor xenografts): showed antitumor activity
COc1cccc2c1NC(=O)[C@@H](NC(=O)[C@H](CCC(F)(F)F)[C@H](CCC(F)(F)F)C(N)=O)N=C2c1ccc(Cl)cc1 [Example 27, (2R,3S)—N-((3S)-5-(4-Chlorophenyl)-9-methoxy-2-oxo-2,3-dihydro-1H-1,4-benzodiazepin-3-yl)-2,3-bis(3,3,3-trifluoropropyl)succinamide]	–	–	half-life at 0.5 µM [4]: 1.92 h
Cc1cccc(C2=N[C@H](NC(=O)[C@H](CCC(F)(F)F)[C@H](CCC(F)(F)F)C(N)=O)C(=O)Nc3c(Cl)cccc32)c1 [Example 28, (2R,3S)—N-((3S)-9-Chloro-5-(3-methylphenyl)-2-oxo-2,3-dihydro-1H-1,4-benzodiazepin-3-yl)-2,3-bis(3,3,3-trifluoropropyl)succinamide]	7.2 nM	1.63 h	–
Cc1ccccc1C1=N[C@H](NC(=O)[C@H](CCC(F)(F)F)[C@H](CCC(F)(F)F)C(N)=O)C(=O)Nc2ccccc21 [Example 31, (2R,3S)—N-((3S)-5-(2-Methylphenyl)-2-oxo-2,3-dihydro-1H-1,4-benzodiazepin-3-yl)-2,3-bis(3,3,3-trifluoropropyl)succinamide]	4.6 nM	1.67 h	–
COc1cccc2c1NC(=O)[C@@H](NC(=O)[C@H](CCC(F)(F)F)[C@H](CCC(F)(F)F)C(N)=O)N=C2c1ccc(C(F)(F)F)cn1 [Example 33, (2R,3S)—N-((3S)-9-Methoxy-2-oxo-5-(5-(trifluoromethyl)-2-pyridinyl)-2,3-dihydro-1H-1,4-benzodiazepin-3-yl)-2,3-bis(3,3,3-trifluoropropyl)succinamide]	7.4 nM	1.37 h	–
Cc1ccc(C2=N[C@H](NC(=O)[C@H](CCC(F)(F)F)[C@H](CCC(F)(F)F)C(N)=O)C(=O)Nc3ccccc32)cc1 [Example 36, (2R,3S)—N-((3S)-5-(4-Methylphenyl)-2-oxo-2,3-dihydro-1H-1,4-benzodiazepin-3-yl)-2,3-bis(3,3,3-trifluoropropyl)succinamide]	3 nM	> 2 h	–
NC(=O)[C@@H](CCC(F)(F)F)[C@@H](CCC(F)(F)F)C(=O)N[C@H]1N=C(c2cccc(F)c2)c2cccc(CO)c2NC1=O [Example 37, (2R,3S)—N-((3S)-5-(3-Fluorophenyl)-9-(hydroxymethyl)-2-oxo-2,3-dihydro-1H-1,4-benzodiazepin-3-yl)-2,3-bis(3,3,3-trifluoropropyl)succinamide]	9.3 nM	1.02 h	–
Cc1cccc2c1N(COC(=O)Cc1ccc(OP(=O)(O)O)cc1)C(=O)[C@@H](NC(=O)[C@H](CCC(F)(F)F)[C@H](CCC(F)(F)F)C(N)=O)N=C2c1cccc(F)c1 [Example 43, ((3S)-3-(((2R,3S)-3-Carbamoyl-6,6,6-trifluoro-2-(3,3,3-trifluoropropyl)hexanoyl)amino)-5-(3-fluorophenyl)-9-methyl-2-oxo-2,3-dihydro-1H-1,4-benzodiazepin-1-yl)methyl(4-(phosphonooxy)phenyl)acetate]	–	–	% Relative Bioavailability to Example 1 [5]: 35%; AUC0-24 h of Example 1 after Administration of Prodrug [5]: 0.193 µM·h
